Results: patent US9775354B2, “Herbicidal composition having improved plant safety” (priority 2013, dated 2017)

Experiments:
Assay type in all cases: in vivo
[1] = tested on: kentucky bluegrass (Poa pratensis L.); test: Test Example 6: chlorosis in kentucky bluegrass after foliar treatment (pot test); details: compound A 100 g/ha, compound B not added; seventh day after treatment; degree 0 to 5.0
Method: Degree of chlorosis=0 (equal to the non-treated area) to 5.0 (complete chlorosis)
(§1) Upland field soil was put into a 1/1,000,000 ha pot, and seeds of kentucky bluegrass (Poa pratensis L.) were sown. When the kentucky bluegrass reached 2-leaf stage, predetermined amounts of compound A and isoxadifen-ethyl, mefenpyr-diethyl or cloquintocet-mexyl were diluted with water (in an amount corresponding to 300 L/ha) containing 0.5 vol % of an agricultural adjuvant (tradename: Destiny HC, manufactured by Winfield Solutions, LLC) and applied for foliar treatment by a small sprayer.
On the seventh day after treatment, chlorosis which developed in the kentucky bluegrass was evaluated in the same manner as in the above Test Example 2.

[2] = tested on: wheat (Triticum aestivum L.); test: Test Example 1: growth inhibition of wheat after foliar treatment (pot test); details: compound B not added, seventh day after treatment
Source text: Upland field soil was put into a 1/1,000,000 ha pot, and seeds of wheat (Triticum aestivum L.) were sown. […] Destiny HC, manufactured by Winfield Solutions, LLC.) and applied for foliar treatment by a small sprayer. On the seventh day after treatment, the state of growth of the wheat was visually observed to determine the growth inhibition rate (%) in accordance with the following evaluation standards.

[3] = tested on: perennial ryegrass (Lolium perenne L.); test: Test Example 3: chlorosis in perennial ryegrass after foliar treatment (pot test); details: compound A 100 g/ha, compound B not added; sixth day after treatment; degree 0 to 5.0
Source text: Degree of chlorosis=0 (equal to the non-treated area) to 5.0 (complete chlorosis) Upland field soil was put into a 1/1,000,000 ha pot, and seeds of perennial ryegrass (Lolium perenne L.) were sown. […] Destiny HC, manufactured by Winfield Solutions, LLC.) and applied for foliar treatment by a small sprayer.

[4] = tested on: bentgrass (Agrostis stolonifera L.); test: Test Example 5: growth inhibition of bentgrass after foliar treatment (pot test); details: compound A 100 g/ha, compound B not added; 24th day after treatment
Source text: (§2) On the seventh day after treatment, the state of growth of the wheat was visually observed to determine the growth inhibition rate (%) in accordance with the following evaluation standards. The results are shown in Table 1. • Growth inhibition rate (%)=0 (equivalent to the non-treated area) to 100 (complete kill)
as §1, with “turf” for “seeds”, “bentgrass (Agrostis stolonifera” for “kentucky bluegrass (Poa pratensis”, “was put.” for “were sown.”, “bentgrass” for “kentucky bluegrass”, “a height of […],” for “2-leaf stage,”, “and” for “and isoxadifen-ethyl,”
On the 24th day after treatment, the state of growth of the bentgrass was visually observed to determine the growth inhibition rate (%) in the same manner as in the above Test Example 1.

[5] = tested on: timothy (Phleum pratense L.); test: Test Example 4: growth inhibition of timothy after foliar treatment (pot test); details: compound A 100 g/ha, compound B not added; sixth day after treatment
Source text: as §2
as §1, with “timothy (Phleum pratense” for “kentucky bluegrass (Poa pratensis”, “timothy” for “kentucky bluegrass”, “1.6 to 2.0-leaf” for “2-leaf”
On the sixth day after treatment, the state of growth of the timothy was visually observed to evaluate the growth inhibition rate (%) in the same manner as in the above Test Example 1.

For `CCn1ncc(C(=O)c2ccc(S(C)(=O)=O)c(OCCOC)c2C)c1OC(C)OC(=O)OC` (stereo not drawn) [Compound A, 1-(1-ethyl-4-(3-(2-methoxyethoxy)-2-methyl-4-(methylsulfonyl)benzoyl)-1H-pyrazol-5-yloxy)ethyl methyl carbonate], the “Chlorosis in kentucky bluegrass” value [1] was 1.7, the “Growth inhibition rate (%) of wheat” value ([2]; compound A 100 g/ha) was 40% and the “Growth inhibition rate (%) of wheat” value ([2]; compound A 150 g/ha) was 40%. The “Chlorosis in perennial ryegrass” value [3] was 0.4, the “Growth inhibition of bentgrass (%)” value [4] was 50% and the “Growth inhibition rate (%) of timothy” value [5] was 10%.
